Laboratory results: patent US20250311727A1, “SUBSTITUTED 2-AMINOAZINES AND SALTS THEREOF, AND USE THEREOF AS HERBICIDAL ACTIVE SUBSTANCES” (BAYER AKTIENGESELLSCHAFT, priority 2022, published 2025)

Legend:
Type in all cases: in vivo
Abutilon theophrasti [1] = experiment: Post-emergence herbicidal efficacy at 320 g/ha, ABUTH; conditions: rated visually after about 3 weeks vs untreated controls, 100% = plants have died
Outline: (§1)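 Effects are visual ratings taken about three weeks after foliar application, scaled from 0% (as untreated control) to 100% (plants died). Application was at the one-leaf stage in greenhouse-grown pots.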

Alopecurus myosuroides [2] = experiment: Post-emergence herbicidal efficacy at 320 g/ha, ALOMY; conditions: rated visually after about 3 weeks vs untreated controls, 100% = plants have died
Description: (§2) Unwanted plants/weeds: • ABUTH: Abutilon theophrasti • ALOMY: Alopecurus myosuroides • AMARE: Amaranthus retroflexus • DIGSA: Digitaria sanguinalis • ECHCG: Echinochloa crus-galli • KCHSC: Kochia scoparia • LOLRI: Lolium rigidum • MATIN: Matricaria inodora • POAAN: Poa annua • POLCO: Polygonum convolvulus • SETVI: Setaria viridis • STEME: Stellaria media • VERPE: Veronica persica • VIOTR: Viola tricolor A. Post-Emergence Herbicidal Efficacy at 320 g/ha
Seeds of mono- and dicotyledonous weed plants were placed in plastic pots in sandy loam soil (doubly sown with in each case one species of mono- or dicotyledonous weed plants per pot), covered with soil and cultivated in a greenhouse under controlled growth conditions. 2 to 3 weeks after sowing, the test plants were treated at the one-leaf stage. The compounds of the invention, formulated in the form of wettable powders (WP) or as emulsion concentrates (EC), were applied to the green parts of the plants as aqueous suspension or emulsion with addition of 0.5% additive at a water application rate equivalent to 600 litres per hectare. After the test plants had been kept in the greenhouse under optimum growth conditions for about 3 weeks, the activity of the preparations was rated visually in comparison to untreated controls.
For example, 100% activity=the plants have died, 0% activity=like control plants.
Tables A1 to A10 below show the effects of selected compounds of the general formula (I) according to Table 1 on various harmful plants and at an application rate corresponding to 320 g/ha, which were obtained by the trial procedure specified above.

Amaranthus retroflexus [3] = experiment: Post-emergence herbicidal efficacy at 320 g/ha, AMARE; conditions: rated visually after about 3 weeks vs untreated controls, 100% = plants have died
Outline: as §1

Digitaria sanguinalis [4] = experiment: Post-emergence herbicidal efficacy at 320 g/ha, DIGSA; conditions: rated visually after about 3 weeks vs untreated controls, 100% = plants have died
Outline: as §1

Kochia scoparia [5] = experiment: Post-emergence herbicidal efficacy at 320 g/ha, KCHSC; conditions: rated visually after about 3 weeks vs untreated controls, 100% = plants have died
Outline: as §1

Poa annua [6] = experiment: Post-emergence herbicidal efficacy at 320 g/ha, POAAN; conditions: rated visually after about 3 weeks vs untreated controls, 100% = plants have died
Outline: as §1

Stellaria media [7] = experiment: Post-emergence herbicidal efficacy at 320 g/ha, STEME; conditions: rated visually after about 3 weeks vs untreated controls, 100% = plants have died
Outline: as §1

Veronica persica [8] = experiment: Post-emergence herbicidal efficacy at 320 g/ha, VERPE; conditions: rated visually after about 3 weeks vs untreated controls, 100% = plants have died
Outline: as §1

Abutilon theophrasti [9] = experiment: Post-emergence herbicidal efficacy at 80 g/ha, ABUTH; conditions: rated visually after about 3 weeks vs untreated controls, 100% = plants have died
Description: as §2
(§3) Seeds of monocotyledonous and dicotyledonous weeds and crop plants were placed in sandy loam in plastic or organic planting pots, covered with soil and cultivated in a greenhouse under controlled growth conditions. 2 to 3 weeks after sowing, the test plants were treated at the one-leaf stage. The compounds of the invention, formulated in the form of wettable powders (WP) or as emulsion concentrates (EC), were then sprayed onto the green parts of the plants as aqueous suspension or emulsion with addition of 0.5% additive at a water application rate of 600 l/ha (converted). After the test plants had been kept in the greenhouse under optimum growth conditions for about 3 weeks, the activity of the preparations was rated visually in comparison to untreated controls. For example, 100% activity=the plants have died, 0% activity=like control plants.
(§4) Tables B1 to B11 below show the effects of selected compounds of the general formula (I) according to Table 1 on various harmful plants and an application rate corresponding to 80 g/ha, which were obtained by the experimental procedure mentioned above.

Alopecurus myosuroides [10] = experiment: Post-emergence herbicidal efficacy at 80 g/ha, ALOMY; conditions: rated visually after about 3 weeks vs untreated controls, 100% = plants have died
Description: as §2, §3, §4

Amaranthus retroflexus [11] = experiment: Post-emergence herbicidal efficacy at 80 g/ha, AMARE; conditions: rated visually after about 3 weeks vs untreated controls, 100% = plants have died
Outline: (§5)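 Greenhouse post-emergence spray, one-leaf stage (2–3 wk after sowing, sandy loam). Cpd as WP/EC, aqueous + 0.5% additive, 600 l/ha water. Visual rating ~3 wk post-treatment vs untreated; 0% = as control, 100% = plants dead.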

PHBPU = experiment: Post-emergence herbicidal efficacy at 80 g/ha, PHBPU; conditions: rated visually after about 3 weeks vs untreated controls, 100% = plants have died
Protocol: as §3, with “plants. Tables B1 to B11 below show the effects of selected compounds of the general formula (I) according to Table 1 on various harmful plants and an application rate corresponding to 80 g/ha, which were obtained by the experimental procedure mentioned above.” for “plants.”

Polygonum convolvulus [12] = experiment: Post-emergence herbicidal efficacy at 80 g/ha, POLCO; conditions: rated visually after about 3 weeks vs untreated controls, 100% = plants have died
Description: as §2
as §3, with “plants. […]” for “plants.”

Veronica persica [13] = experiment: Post-emergence herbicidal efficacy at 80 g/ha, VERPE; conditions: rated visually after about 3 weeks vs untreated controls, 100% = plants have died
Outline: as §5

Abutilon theophrasti [14] = experiment: Pre-emergence herbicide efficacy at 320 g/ha, ABUTH; conditions: scored visually after about 3 weeks vs untreated controls, 100% = plants have died
Outline: (§6)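 Sandy loam pots, seeds covered with soil; WP/EC formulation applied to soil surface, 0.5% additive, 600 L/ha water. Greenhouse ~3 weeks. Visual % damage vs untreated (0% = like control, 100% = dead).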

Amaranthus retroflexus [15] = experiment: Pre-emergence herbicide efficacy at 320 g/ha, AMARE; conditions: scored visually after about 3 weeks vs untreated controls, 100% = plants have died
Outline: as §6

Digitaria sanguinalis [16] = experiment: Pre-emergence herbicide efficacy at 320 g/ha, DIGSA; conditions: scored visually after about 3 weeks vs untreated controls, 100% = plants have died
Outline: as §6

Kochia scoparia [17] = experiment: Pre-emergence herbicide efficacy at 320 g/ha, KCHSC; conditions: scored visually after about 3 weeks vs untreated controls, 100% = plants have died
Outline: as §6

Poa annua [18] = experiment: Pre-emergence herbicide efficacy at 320 g/ha, POAAN; conditions: scored visually after about 3 weeks vs untreated controls, 100% = plants have died
Outline: as §6

Setaria viridis [19] = experiment: Pre-emergence herbicide efficacy at 320 g/ha, SETVI; conditions: scored visually after about 3 weeks vs untreated controls, 100% = plants have died
Outline: as §6

Stellaria media [20] = experiment: Pre-emergence herbicide efficacy at 320 g/ha, STEME; conditions: scored visually after about 3 weeks vs untreated controls, 100% = plants have died
Outline: as §6

Veronica persica [21] = experiment: Pre-emergence herbicide efficacy at 320 g/ha, VERPE; conditions: scored visually after about 3 weeks vs untreated controls, 100% = plants have died
Outline: as §6

Amaranthus retroflexus [22] = experiment: Pre-emergence herbicide efficacy at 80 g/ha, AMARE; conditions: scored visually after about 3 weeks vs untreated controls, 100% = plants have died
Outline: (§7)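 Visual scoring after about 3 weeks in the greenhouse, expressed as percent activity against untreated controls, where 100% means dead plants and 0% means no difference. Treatment was applied pre-emergence to the covering soil over sown seeds, as WP or EC in water with 0.5% additive, 600 l/ha.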

Polygonum convolvulus [23] = experiment: Pre-emergence herbicide efficacy at 80 g/ha, POLCO; conditions: scored visually after about 3 weeks vs untreated controls, 100% = plants have died
Outline: as §7

Setaria viridis [24] = experiment: Pre-emergence herbicide efficacy at 80 g/ha, SETVI
Outline: as §7

Veronica persica [25] = experiment: Pre-emergence herbicide efficacy at 80 g/ha, VERPE
Outline: as §7

Viola tricolor = experiment: Pre-emergence herbicide efficacy at 80 g/ha, VIOTR
Outline: as §7

Q: What does the source list for `FC(F)c1cc(-c2ccccc2Nc2ncc(Cl)cn2)on1` [Example 1-31]?
A: Post-emergence efficacy at 320 g/ha against ABUTH in % (Abutilon theophrasti [1]): 100%; Post-emergence efficacy at 320 g/ha against ALOMY in % (Alopecurus myosuroides [2]): 100%; Post-emergence efficacy at 320 g/ha against AMARE in % (Amaranthus retroflexus [3]): 100%; Post-emergence efficacy at 320 g/ha against DIGSA in % (Digitaria sanguinalis [4]): 100%; Post-emergence efficacy at 320 g/ha against KCHSC in % (Kochia scoparia [5]): 100%; Post-emergence efficacy at 320 g/ha against POAAN in % (Poa annua [6]): 100%; Post-emergence efficacy at 320 g/ha against STEME in % (Stellaria media [7]): 100%; Post-emergence efficacy at 320 g/ha against VERPE in % (Veronica persica [8]): 100%; Post-emergence efficacy at 80 g/ha against ABUTH in % (Abutilon theophrasti [9]): 80%; Post-emergence efficacy at 80 g/ha against ALOMY in % (Alopecurus myosuroides [10]): 80%; Post-emergence efficacy at 80 g/ha against AMARE in % (Amaranthus retroflexus [11]): 90%; Post-emergence efficacy at 80 g/ha against PHBPU in % (PHBPU): 80%; Post-emergence efficacy at 80 g/ha against POLCO in % (Polygonum convolvulus [12]): 100%; Post-emergence efficacy at 80 g/ha against VERPE in % (Veronica persica [13]): 90%; Pre-emergence efficacy at 320 g/ha against ABUTH in % (Abutilon theophrasti [14]): 90%; Pre-emergence efficacy at 320 g/ha against AMARE in % (Amaranthus retroflexus [15]): 100%; Pre-emergence efficacy at 320 g/ha against DIGSA in % (Digitaria sanguinalis [16]): 100%; Pre-emergence efficacy at 320 g/ha against KCHSC in % (Kochia scoparia [17]): 90%; Pre-emergence efficacy at 320 g/ha against POAAN in % (Poa annua [18]): 100%; Pre-emergence efficacy at 320 g/ha against SETVI in % (Setaria viridis [19]): 100%; Pre-emergence efficacy at 320 g/ha against STEME in % (Stellaria media [20]): 100%; Pre-emergence efficacy at 320 g/ha against VERPE in % (Veronica persica [21]): 100%; Pre-emergence efficacy at 80 g/ha against AMARE in % (Amaranthus retroflexus [22]): 100%; Pre-emergence efficacy at 80 g/ha against POLCO in % (Polygonum convolvulus [23]): 80%; Pre-emergence efficacy against SETVI (Setaria viridis [24]): 100%; Pre-emergence efficacy against VERPE (Veronica persica [25]): 90%; Pre-emergence efficacy against VIOTR (Viola tricolor): 90%
